In PubChem BioAssay AID1645865 (Buhrlage Lab, Dana-Farber Cancer Institute and Novartis …, 2021):
Active and inactive are the calls of the source.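 How the source made its calls: active means maximal inhibition of the USP30 enzyme reaching 30% or more across the dose series; inactive means the rest.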

target: Ubiquitin carboxyl-terminal hydrolase 30 (Homo sapiens) (UniProt Q70CQ3); test: inhibitors of ubiquitin-specific protease 30 deubiquitylating enzyme, concentration dependence, in vitro biochemical, validation of primary hits (AID 1645865); conditions: purified USP30, Ub-rhodamine cleavage, fluorescence, 2 h
Sequence (Q70CQ3 whole entry, looked up): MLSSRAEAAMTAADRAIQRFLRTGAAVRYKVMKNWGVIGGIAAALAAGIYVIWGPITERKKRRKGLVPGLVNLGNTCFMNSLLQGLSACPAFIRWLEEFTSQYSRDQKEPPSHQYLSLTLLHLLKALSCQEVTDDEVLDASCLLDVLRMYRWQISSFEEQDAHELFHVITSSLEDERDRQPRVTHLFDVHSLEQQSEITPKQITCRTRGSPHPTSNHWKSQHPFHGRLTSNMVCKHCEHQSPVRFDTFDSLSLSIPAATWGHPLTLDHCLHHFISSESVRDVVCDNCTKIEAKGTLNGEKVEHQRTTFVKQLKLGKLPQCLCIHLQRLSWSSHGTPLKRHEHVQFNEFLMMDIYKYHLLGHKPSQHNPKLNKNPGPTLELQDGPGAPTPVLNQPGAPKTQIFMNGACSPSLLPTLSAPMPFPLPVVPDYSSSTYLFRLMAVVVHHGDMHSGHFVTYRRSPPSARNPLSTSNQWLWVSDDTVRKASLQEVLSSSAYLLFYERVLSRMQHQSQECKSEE

Structure (SMILES)	IC50
COc1ccccc1-c1nc2c3c(C)c(C)n(-c4ccc(Br)cn4)c3ncn2n1	0.887 µM
CC(C)(C)c1ccc(-c2nnc3n2-c2ccccc2SC3)cc1	19.1 µM
COCCNC(=O)c1ccc(-c2ccc(N3CCCCC3)nc2)cc1	22.9 µM
CCOC(=O)C1CCN(C(=O)c2ccc3c(c2)NC(=O)C2CCCN32)CC1 (configuration not stated)	> 50 µM (inactive)
Cc1ccc(OCCn2c(=N)n(C(C)C)c3ccccc32)cc1	35.3 µM
CCc1nnc(NC(=O)c2nnn(-c3ccccc3Cl)c2C)s1	> 50 µM (inactive)
O=c1c(-c2nc(C3CC3)no2)cccn1Cc1c(F)cccc1Cl	> 50 µM (inactive)
Cc1cc(C(=O)CN2CCN(Cc3ccc4c(c3)OCO4)CC2)c(C)n1-c1ccc2c(c1)OCO2	> 50 µM (inactive)
C/C1=C\CCC(C)C(O)CC(O)C(C)C(O)CCC(C)C(O)CC2(O)OC(CC(OC(=O)CC(=O)O)CC(O)CC(O)CC(O)C(C)C(O)/C=C/C(C)C(C(C)CCCCCCCCN=C(N)N)OC1=O)CC(O)C2O (configuration not stated)	> 50 µM (inactive)
O=C(c1cscn1)N1CCC2(CC1)CC1(CO2)Nc2ccccc2-n2cccc21 (configuration not stated)	> 50 µM (inactive)
O=C1Oc2nc3ccccc3cc2CN1Cc1ccco1	17.2 µM
O=c1oc2ccccc2c2nn(-c3ccccn3)cc12	16.7 µM
Cc1cc(NC(=O)c2nnn(-c3ccccc3Cl)c2C)no1	> 50 µM (inactive)
Cc1c(Cl)cccc1NC(=O)Cn1c(=O)c2ccccc2n2nncc12	> 50 µM (inactive)
O=C1C=CC(O)C2C1CC13SSC4(CC5C(=O)C=CC(O)C5N4C1=O)C(=O)N23 (configuration not stated)	1 µM
CCCCCC(O)c1c(O)cc2c(c1O)C(=O)c1c(O)cc(O)cc1C2=O (configuration not stated)	> 50 µM (inactive)
c1ccc(Cc2nn3c(-c4cccnc4)nnc3c3ccccc23)cc1	0.654 µM
O=C(Nc1ccc2c(c1)OCO2)C1CCN(Cc2nc3ccccc3s2)CC1	> 50 µM (inactive)
COc1c(O)cc(CC(=O)O)c(C(C)=O)c1O	> 5 µM (inactive)
C=C1CCC2[C@](C)(CCC[C@]2(C)C(=O)OC)[C@H]1CCc1ccoc1CNC(C)C (some centres not stated)	> 50 µM (inactive)
Cc1sc(-c2cccnc2)nc1OC(=O)c1ccc(Cl)c(Cl)c1	> 50 µM (inactive)
Cc1ncncc1C(=O)N1CCCC(C)(c2ncc(Cc3cccc(F)c3)o2)C1 (configuration not stated)	> 50 µM (inactive)
CC(C)C(=O)Nc1ccc(N2CCN(Cc3ccc(F)cc3)C2=O)nc1	37.6 µM
O=C(CCc1nnc2n(Cc3ccccc3)c(=O)c3ccccc3n12)N1CCN(c2ccccn2)CC1	2.29 µM

Structure (SMILES)	IC50
Cc1cc(C(=O)N2CCN(C3CCN(Cc4ccc(Cl)o4)CC3)C(=O)C2)c(C)o1	> 50 µM (inactive)
O=C(c1ccsc1)N1CCC2(C1)Nc1cccnc1NC2=NC1CCCC1 (configuration not stated)	> 50 µM (inactive)
O=C(Nc1cc(F)c2nc(N3CCCC3)ccc2c1)c1ccco1	> 50 µM (inactive)
COc1ccc(-c2cc(-c3ccccc3)nc(SCC(N)=O)c2C#N)cc1OC	1.59 µM
COc1cccc2c1NC(=O)C21CCN(C(=O)Nc2cccc(C)c2)CC1	16.3 µM
O=C(Cn1cnc2c(oc3ccccc32)c1=O)NCc1ccccc1Cl	35.9 µM
O=C(c1cc2ccccc2o1)N1CC=C(c2ccccc2)CC1	> 50 µM (inactive)
Cc1noc(-c2cccc(=O)n2CC(=O)Nc2ccc(C)c(C)c2)n1	25 µM
O=C1CC(O)C(O)c2cccc(O)c21 (configuration not stated)	> 50 µM (inactive)
Cc1ccc(Cc2nc(-c3ccc(=O)[nH]c3)no2)cc1	> 50 µM (inactive)
CCCn1cc(C(=O)N2CCC3(CC2)CC2(CO3)Nc3ccccc3-n3cccc32)c(C)n1 (configuration not stated)	> 50 µM (inactive)
CSc1ccccc1C(=O)Nc1nc(-c2ccncc2)cs1	23.3 µM
CC1(C)CC(=O)C2=C(C1)Nc1ccccc1N(C(=O)C(F)(F)F)C2c1cccs1 (configuration not stated)	> 50 µM (inactive)
O=C(/C=C/c1ccc2c(c1)OCO2)Nc1nc2c(s1)COCC2	25.8 µM
Cc1sc2ccn(C)c(=O)c2c1C(=O)NC1CCCC1	25.9 µM
CCN(C(=O)c1cc2c(Cl)nc3ccccc3c2s1)c1ccccc1F	> 50 µM (inactive)
Cc1nc(-c2ccc(NC(=O)N3CCN(c4ccccn4)CC3)cc2)no1	> 50 µM (inactive)
CC1CCN(c2cc(-n3cnc(C(=O)N4CCCCC4)c3)ncn2)CC1	> 50 µM (inactive)
Cc1cc(C)c2cc3c(nc2c1)OC(=O)N(Cc1ccco1)C3	23.2 µM
CN1CC2CN(C(=O)Nc3cccnc3)CCN2Cc2ccccc21 (configuration not stated)	> 50 µM (inactive)
Cc1cc(C)c2nc3c(cc2c1)CN(Cc1ccco1)C(=O)O3	> 50 µM (inactive)
Cc1ccc2c(c1)[C@]1(C(=O)N2)[C@@H]2C(=O)N(c3cccc(C(F)(F)F)c3)C(=O)[C@@H]2C2CCCN21 (some centres not stated)	> 50 µM (inactive)
Cc1ccc(-n2nc(C)c3c2NC(=O)CC3C(=O)c2cc3ccccc3o2)cc1C (configuration not stated)	> 50 µM (inactive)
COc1ccc(COc2ccc3c(C)c(CC(=O)N4CC[C@@]5(O)CCCC[C@H]5C4)c(=O)oc3c2)cc1	2.22 µM

Second part, the compound after the results:

IC50	Structure (SMILES)
> 50 µM (inactive)	COc1ccc(NC(=O)CSc2nnc(Cc3cccc4ccccc34)n2C)cc1
> 50 µM (inactive)	CC1(C(=O)NCc2ccccc2)Cn2c(cc3ccccc32)C(=O)N1Cc1ccccc1 (configuration not stated)
2.83 µM	COc1ccc(N(CC(=O)NC2CCCCC2)C(=O)c2ccc(-c3ccccc3)[nH]2)cc1OC
26.6 µM	CCOC(=O)c1nc(Nc2ccc(OC)c(Cl)c2)c2ccccc2n1
2.74 µM	Cc1cccc(NC(=O)Cn2c(=O)n(Cc3ccc(F)cc3)c(=O)c3sccc32)c1
1.56 µM	O=C(Nc1ccc2c(c1)OCCO2)c1cccc2nc3ccccc3nc12
> 50 µM (inactive)	O=C(c1ccc2occc2c1)N1CCC(S(=O)(=O)c2ccc(-c3ccco3)cc2)CC1
> 50 µM (inactive)	CC(=O)c1cccc(NC(=O)c2ccc(CN(c3ccc(C)c(C)c3)S(C)(=O)=O)cc2)c1
33.4 µM	O=C(CNc1nc(Nc2ccccc2F)nc(Nc2ccccc2F)n1)Nc1ccccc1
> 50 µM (inactive)	O=c1[nH]c(C2CCN(S(=O)(=O)c3ccc(S(=O)(=O)NC4CCCC4)cc3)CC2)nc2c1nnn2Cc1cccc(Cl)c1
16 µM	O=C(Nc1cccc(OC(=O)c2ccc(Cl)cc2)c1)c1ccc(Cl)cc1
4.45 µM	Cc1ccc(C(=O)c2cn(CC(=O)Nc3ccccc3)c3ccc(C)cc3c2=O)cc1
> 50 µM (inactive)	NS(=O)(=O)c1cccc(NS(=O)(=O)c2ccc(/C=C/C(=O)OCC(=O)c3ccc(Br)cc3)cc2)c1
5.24 µM	Cc1ccc(NC(=O)/C=C/c2cccc(C(F)(F)F)c2)c(O)c1
2.11 µM	O=C(CSc1ccc(-c2cccc([N+](=O)[O-])c2)nn1)Nc1cccc(F)c1
1.26 µM	Cc1cc(NC(=O)c2cc(-c3cccnc3)n[nH]2)ccc1Br
> 50 µM (inactive)	O=S(=O)(c1ccc2c(c1)OCCO2)N(Cc1ccccc1)Cc1nnc(-c2ccccc2)o1
1.9 µM	COc1ccc(-c2cc3nc([C@H](C)NC(=O)Cc4ccccc4C)nn3cn2)cc1
4.93 µM	Cc1ccc(C2=Nc3ccccc3N(CC(=O)Nc3cccc(C)c3C)C(=O)C2)cc1C
24.8 µM	COCCCNC(=O)c1ccc(Cn2c(=O)c3ccccc3n(CC(=O)NC3CCCCC3)c2=O)cc1
32.5 µM	CC(C)CCN1C(=O)C2C(C(=O)Nc3ccc(Oc4ccccc4)cc3)C3C=CC2(O3)C1C(=O)NC1CCCCC1 (configuration not stated)
> 50 µM (inactive)	COc1cccc(CNC(=O)c2ccc3c(c2)NC(=O)C2CCCN32)c1OC (configuration not stated)
3.47 µM	CCn1cc2c(n1)c(=O)n(Cc1ccc(C)cc1)c(=O)n2CC(=O)Nc1ccc(F)cc1
44.9 µM	COc1ccccc1CNC(=O)c1ccc(CSc2nc3ccncc3n2Cc2ccccc2)cc1
1.27 µM	O=C(Nc1ccc(-c2cn3ccsc3n2)cc1)c1ccc(Cl)c([N+](=O)[O-])c1

IC50	Structure (SMILES)
> 50 µM (inactive)	CCOc1ccccc1NC(=O)COc1cc(OC)ccc1C(=O)c1ccccc1
32.3 µM	CC1=C(c2ccc(F)cc2)S(=O)(=O)N=C1Nc1ccc(Cl)cc1
> 50 µM (inactive)	O=C(COc1nc2ccccc2nc1N1CCOCC1)NC(c1ccccc1)c1ccccc1
> 50 µM (inactive)	Cc1ccc(C(=O)Nc2ccc(S(=O)(=O)N3CCCC3)cc2)cc1Br
28.1 µM	C=Cc1ccc(Cn2cc(S(=O)(=O)N3CCOCC3)ccc2=O)cc1
> 50 µM (inactive)	Cc1c(C)n(-c2ccccc2)c2ncn(CC(=O)N(C)Cc3ccccc3)c(=O)c12
18.1 µM	CCC(=O)Nc1ccccc1-c1nc2ccccc2n(CC(=O)Nc2cc(OC)ccc2OC)c1=O
> 50 µM (inactive)	CC(C)Cn1cc(OC(=O)c2ccc(F)cc2)c2c1nc(-c1ccc(F)cc1)n1c3ccccc3nc21
3.81 µM	CCOc1ccc(-c2ccc3nnc(SCC(=O)Nc4cccc(C(C)=O)c4)n3n2)cc1
46.6 µM	O=[N+]([O-])c1cccc(-c2noc(CSc3ccccc3)n2)c1
28.9 µM	COc1ccccc1NC(=O)c1cc2c(C)nn(Cc3ccccc3)c2s1
> 50 µM (inactive)	COc1cccc(NC(=O)c2nnn(-c3ccccc3)n2)c1
> 50 µM (inactive)	N#Cc1ccccc1COC(=O)c1ccc2ccccc2n1
> 50 µM (inactive)	COc1ccccc1-c1ccc(CN2[C@@H](c3ccccc3)C[C@@H]3NC(=O)CCC[C@H]32)cc1
4.62 µM	Cc1cccc(NC(=O)Nc2ccc(C)n(CC(=O)Nc3ccccc3)c2=O)c1
> 50 µM (inactive)	COc1cccc(N2CCN(C(=O)CCNS(=O)(=O)c3ccc4c(c3)CCC(=O)N4)CC2)c1
0.304 µM	O=C(Nc1cccc(-c2nc3ccccc3[nH]2)c1)c1cc2ccccc2oc1=O
> 50 µM (inactive)	Cc1ccc(/C=C/C(=O)Nc2ccc3c(c2)OCCO3)cc1
32.3 µM	Cc1ccc(NC(=O)c2cc(-c3cccnc3)n(-c3ccccc3)n2)nc1
29.2 µM	Cc1ccc(-c2c(C(=O)Nc3ccc(S(N)(=O)=O)cc3)oc(=O)c3ccccc23)cc1
> 50 µM (inactive)	Cn1c(CCN2CCCC2)nc2cc(NS(=O)(=O)c3ccccc3)ccc21
21.2 µM	CC(=O)Nc1ccc(-n2cnc(C(=O)NCc3ccc(C)cc3)c2)nc1
> 50 µM (inactive)	COc1ccc(-c2cnnn2-c2ccc(NC(=O)c3c(F)cccc3F)cc2)cc1OC
8.88 µM	CCc1ccc(Nc2cc(C(=O)NCCCOC(C)C)c3ccccc3n2)cc1
